According to US10259799B2, “Hydroxyl pyranone compound, method for producing same, and cosmetics composition comprising compound” (AMOREPACIFIC CORPORATION, priority 2015, dated 2019):

Tested on: human adipose tissue derived mesenchymal stem cells (hAT-MSCs)
Experiment: Adipocyte differentiation promoting effect: adiponectin in culture medium by ELISA
Type: cell-based
Details: for expression level of adiponectin (in words): hAT-MSCs with IDX, 14th day, comment on Table 1; for Adiponectin (pg/ml, Avg ± S.D.): medium collected on 14th day of differentiation
Description: In order to examine the adipocyte differentiation promoting effect of the compounds prepared in the Example, the following test was carried out.
Adiponectin is a typical protein hormone secreted from adipocytes. It has been reported that as adipocytes are differentiated, the expression of adiponectin is increased. Therefore, the adipocyte differentiation promoting effect was confirmed by measuring the amount of adiponectin expressed in the cell culture medium when treated with the novel compound of the present invention, which is an indicator of adipocyte differentiation promoting.
The adipocyte differentiation was performed by culturing human adipose tissue derived mesenchymal stem cells (hAT-MSCs) from Lonza Inc. (Walkersville, Md., USA) according to Lonza's guidelines. The adipocyte differentiation was carried out using the method recommended by Lonza Inc., except that the adipocyte differentiation of adipose-derived mesenchymal stem cells is induced by using troglitazone (TRO) instead of indomethacin. Specifically, the mesenchymal stem cells were differentiated into adipocytes by adding the medium for adipocyte differentiation (hereinafter referred to as IDX), which was prepared by mixing […] of insulin, […] of Dexamethasone (DEXA), 0.5 mM of isobutylmethylxanthine (IBMX) and […] of TRO, to the culture medium of mesenchymal stem cells, and then culturing it.
In order to determine the expression level of adiponectin, after the medium for adipocyte differentiation was collected on the 14th day of differentiation, the amount of adiponectin was quantified using the Adiponectin ELISA Kit (R & D systems, Cat. No. DY1065) (each data value was corrected by the control group). The specific measurement method using Adiponectin ELISA Kit was as follows.
First, the capture antibody was reacted in a 96-well plate, washed with washing buffer solution, and then the material shown in Table 1 below was added and reacted at room temperature for 2 hours. Thereafter, while washing three times every time when going through each step, the detection antibody, the HRP enzyme, the substrate solution, and the stop solution were added in order and reacted for the time indicated in the protocol. After the final reaction, the absorbance was measured at a wavelength of 450 nm using a spectrophotometer.

Row | SMILES | expression level of adiponectin (in words) | Adiponectin (pg/ml, Avg ± S.D.)
1 | O=c1cc(CO)occ1O [Kojic acid] | not increased | –
2 | O=C(/C=C/c1ccc2c(c1)OCO2)OCc1cc(=O)c(O)co1 [Seletinoid G] | – | 1505 ± 109 pg/mL
3 | CC1=C(/C=C/C(=O)OCc2cc(=O)c(O)co2)C(C)(C)CCC1 [compound of example, 3-(2,6,6-trimethyl-cyclohex-1-enyl)-propenoic acid 5-hydroxy-4-oxo-4H-pyran-2-ylmethyl ester] | increases almost similarly to that with Glibenclamide | 1804 ± 110 pg/mL
